Assays:
[1] = system: MCF-7-MKP3 xenografts; assay: Xenograft growth of MCF-7 vector control and MKP3-transfected cells in athymic nude mice; type: in vivo
Protocol: MCF-7 vector control and MKP3-transfected cells were established as xenografts in ovariectomized 5- to 6-week-old BALB/c athymic nude mice (Harlan Sprague Dawley, Madison, Wis.) supplemented with 0.25-mg 21-day-release E2 pellets (Innovative Research, Sarasota, Fla.) by inoculating the mice subcutaneously with 5×10^6 cells, as described previously (Osborne et al., 1995). […] Tumor growth was assessed and tumor volumes were measured as described previously (Osborne et al., 1995). Mice were anesthetized with isoflurane before tumor removal; tumor tissues were kept at […] for later analyses. Animal care was in accordance with institutional guidelines.
To analyze the endocrine sensitivity of the MKP3-overexpressing cells in more detail in vivo, the ability of MCF-7-vector control 1 and MCF-7-MKP3-2 transfectants to form tumors in athymic mice was examined. Xenografts were established in ovariectomized mice supplemented with estrogen for 21 days. […] This was examined by fitting the data in an exponential growth model, and testing whether growth rates were different between the groups; the analyses were done separately for estrogen-treated (FIG. 4C, left panel) and Tam-treated animals (right panel). There was no difference in the estrogen-stimulated growth of the MCF-7-vector control and MKP3-overexpressing cells (P=0.52).

[2] = system: progesterone receptor (PR) A and B forms; assay: Immunoblot of PR-A and PR-B in MCF-7 transfectants; type: cell-based, human
Protocol: (§1) Cells grown in 100 mm dishes were starved in phenol red-free (PRF), serum-free MEM (Specialty Media, Phillipsburg, N.J.) for 48 hours, and were then treated for 2 hours with vehicle (ethanol), estrogen (100 nM, 20), or OHT (100 nM). After treatment, cells were rinsed twice with ice-cold phosphate-buffered saline (PBS) and were then lysed immediately with 200 μl of cell lysis buffer (20 mM Tris HCl, pH 7.4, 150 mM NaCl, 1 mM B-glycerophosphate, 1 mM sodium orthovanadate, and 10% glycerol plus 1:100 proteinase inhibitor cocktail III) (Calbiochem, LaJolla, Calif.) per 100 mm tissue culture. The cell lysates were cleared by centrifugation at 16,100×g for 10 minutes at 4° C. Protein concentration was determined with the BCA Protein Assay kit (Pierce, Rockfold, Ill.) according to the manufacturer's directions. Equal amount of cell extracts were resolved under denaturing conditions by electrophoresis in 8-10% polyacrylamide gels containing sodium dodecyl sulfate (SDS-PAGE), and transferred to nitrocellulose membranes by electroblotting (Schleicher & Schuell, Keene, NH). After blocking of the transferred nitrocellulose membrane with TBST (20 mM Tris pH 7.6, 150 mM NaCl, 0.1% Tween-20) supplemented with 5% non-fat milk for 1 hour at room temperature, the membrane was incubated with primary antibodies either for 1 hour at room temperature (anti-ERα, 1:100 dilution; anti-AIB1, 1:100 dilution; anti-ERK2, 1:500 dilution; anti-Cyclin D1,1:500 dilution; anti-PR, C-19, 1:200 dilution; anti-p190, 1:1000 dilution; anti-V5, 1:5000 dilution), or overnight at 4° C. (anti-phospho MAPK, 1:1000 dilution; anti-phosphor-Ser118-ERα; 1:1000 dilution; MAPK p42/44, 1:1000 dilution), incubated with secondary antibodies for 1 hour at room temperature and then developed with Enhanced Chemiluminescence Reagents (Amersham Pharmacia Biotech, Piscataway, N.J.).
As expected with two hours of estrogen treatment, no induction of the two PR isoforms were detected in either the control vector (Con 1 and 2), or in the MKP3-transfected cells (FIG. 11A). […]

[3] = system: T47D cells overexpressing MTA2; assay: Soft agar growth of MTA2-overexpressing T47D cells; type: cell-based, human; details: MTA2.5 and 2.8 clones compared to vector alone transfected cells
Excerpt: Metastasis associated protein 2 (MTA2), also known as PID, is contained in nucleosome remodeling and histone deacetylation (NuRD) complexes. Overexpression of MTA2 into T47D human breast cancer cells (MTA2.5 and 2.8 clones) increases the growth in soft agar in the absence of estrogen (C).

[4] = system: ERK 1,2 MAPK; assay: Immunoblot of phospho-MAPK in MCF-7 transfectants; type: cell-based, human; details: MKP3-overexpressing MCF-7 cells; 2 hours, 100 nM
Protocol: as §1
MAPK activity is tightly regulated by phosphorylation and dephosphorylation. MKP3 participates in a bidirectional regulatory loop with ERK2 MAPK, whereby ERK2 substrate binding is associated with catalytic activation of MKP3, and activated MKP3 negatively regulates pERK2 (Camps et al., 1998). […] Immunoblot analysis with anti-V5 was used to detect ectopic MKP3 expression in the two MKP3 transfectants (FIG. 5A, top panel). FIGS. 5B and 5C provide quantitation of results in FIG. 5A.

[5] = system: MCF-7 vector control cells; assay: Anchorage-independent soft agar colony formation, MCF-7 vector control cells; type: cell-based, human; details: MCF-7 vector control cells; 1 nM estradiol or 100 nM 4-OH-Tam; 14 days
Protocol: Cells were starved for 2 days in PRF MEM (InVitrogen) supplemented with 5% fetal bovine serum (FBS, Summit Biotechnology, Fort Collins, Colo.), 6 ng/ml insulin, 200 units/ml penicillin, and 200 μg/ml streptomycin. Soft agar assays were performed in sixwell plates. Into each well, 1.5 ml of prewarmed (50° C.) 0.7% SeaPlaque agarose (FMC, Rockland, Me.) was added and dissolved in PRF MEM supplemented with 5% charcoal stripped FBS (Summit, Fort Collins, Colo.) to serve as the bottom layer, and allowed to solidify at 4° C. until to use. 0.5×10^4 cells as a single cell suspension were suspended in prewarmed (37° C.) of the same media, 4 ml of 0.5% SeaPlaque agarose was then added, and this suspension then plated as the top layer by adding it dropwise to the solidified bottom layer plates. Plates were cooled for 2 hours, and then transferred to a 37° C. humidified incubator. Two days after plating, media containing control vehicle, 1 nM estradiol, 100 nM 4-OH-Tam, 100 nM OHT plus 10 nM ICI, or 100 nM OHT plus 20 nM […] was added to the top cell layer, and the appropriate media was replaced every two days. After 14 days, the colonies were fixed, and the colony number of colonies >50 cells from quadruplicate assays were then counted. The data shown is the mean colony number of four plates, and is representative of two independent experiments.
In pancreatic cells, ectopic expression of MKP3 is reported to result in a suppression of cell growth (Fuqua et al., 2003). Thus, the growth characteristics of the MCF-7 stable MKP3 transfectants under different hormonal conditions were investigated using anchorageindependent soft agar assay (FIG. 4B).

[6] = system: ERα; assay: Immunoblot of phospho-S118 ERα and total ERα in MCF-7 transfectants; type: cell-based, human; details: for total ERα protein level: control transfected and MKP3 overexpressing cells
Protocol: as §1

| SMILES | tumor growth rate, MKP3-expressing versus vector control xenografts ([1]; estrogen withdrawal plus tamoxifen citrate 500 μg/animal s.c. 5 days/week, P=0.047) | PR-B levels ([2]; two MKP3 transfectants, not observed in control MCF-7 transfectants) | response of soft agar growth [3] | levels of pMAPK [4] | number of colonies in soft agar [5] | phosphorylation at ERα serine 118 ([6]; MKP3 transfectants, 2 hours) | total ERα protein level [6] | tumor growth rate, MKP3-overexpressing versus vector control xenografts ([1]; estrogen-treated animals, P=0.52) | induction of the two PR isoforms ([2]; two hours of treatment, control vector and MKP3-transfected cells) |
| --- | --- | --- | --- | --- | --- | --- | --- | --- | --- |
| CC/C(=C(\c1ccccc1)c1ccc(OCCN(C)C)cc1)c1ccccc1 [Tam, tamoxifen] | significantly increased | striking diminution | unresponsive | highest activation of MAPK | reduced the number of colonies | highly induced | stabilization | – | – |
| C[C@]12CC[C@@H]3c4ccc(O)cc4CC[C@H]3[C@@H]1CC[C@@H]2O [E2, 17β-Estradiol] | – | – | unresponsive | lowest | increased the number of colonies | – | Down regulation | no difference | no induction |

— US20070059720A9 (priority 2004, published 2007)
